Test results from patent US20100197757A1, “OXINDOLES AS KINASE INHIBITORS” (priority 2005, published 2010).

The compounds below were run on MEK (assay: IC50 column of the compound table in Example 1 (assay not given)).
`N/C(=C1\C(=O)Nc2cc(Cl)ccc21)c1ccccc1` [No. a, 3-(Amino-phenyl-methylene)-6-chloro-1,3-dihydro-indol-2-one] gave an IC50 of 1100 nM.
`N/C(=C1\C(=O)Nc2ccc(Cl)cc21)c1ccccc1` [No. b, 3-(Amino-phenyl-methylene)-5-chloro-1,3-dihydro-indol-2-one] showed an IC50 of 260 nM.
`N/C(=C1\C(=O)Nc2ccccc21)c1ccc(O)cc1` [No. c, 3-[Amino-(4-hydroxy-phenyl)-methylene]-1,3-dihydro-indol-2-one] was tested, and the IC50 was 940 nM.
With `N/C(=C1\C(=O)Nc2ccccc21)c1ccc(I)cc1` [No. d, 3-[Amino-(4-iodo-phenyl)-methylene]-1,3-dihydro-indol-2-one] the IC50 was 2700 nM.
For `N/C(=C1\C(=O)Nc2cc(Cl)ccc21)c1ccc(I)cc1` [No. e, 3-(Amino-(4-iodo-phenyl)-methylene)-6-chloro-1,3-dihydro-indol-2-one], the IC50 was 4100 nM.
`N/C(=C1\C(=O)Nc2ccc(Cl)cc21)c1ccc(I)cc1` [No. f, 3-(Amino-(4-iodo-phenyl)-methylene)-5-chloro-1,3-dihydro-indol-2-one] was tested, and the IC50 was 1100 nM.
`N/C(=C1\C(=O)Nc2ccc(Br)cc21)c1cccc(I)c1` [No. n, 3-(Amino-(3-iodo-phenyl)-methylene)-5-bromo-1,3-dihydro-indol-2-one] was tested, and the IC50 was 3400 nM.
Work on `COc1ccc(/C(N)=C2/C(=O)Nc3ccccc32)cc1` [No. o, 3-[Amino-(4-methoxy-phenyl)methylene]-1,3-dihydro-indol-2-one] yielded an IC50 of 3100 nM.
`COc1ccc(/C(N)=C2/C(=O)Nc3cc(Cl)ccc32)cc1` [No. p, 3-(Amino-(4-methoxy-phenyl)-methylene)-6-chloro-1,3-dihydro-indol-2-one] showed an IC50 of 8700 nM.
